{"source": "patent US10052387B2", "about": "“Ceramide reversal of multi-drug resistance” (Memorial Sloan-Kettering Cancer Center, priority 2013, dated 2018)", "molecules": {"B1": {"name": "sphingomyelinase: exogenous bacterial sphingomyelinase used to generate endogenous ceramide (protein, UniProt P09599 28-333, looked up)", "Sphingomyelinase C": "DTSTDQNNTLKVMTHNVYMLSTNLYPNWGQSQRADLIGAADYIKNQDVVILNEVFDNSASDRLLGNLKKEYPNQTAVLGRSNGNEWDKTLGSYSSSTPEDGGVAIVSKWPIVEKIQYVFAKGCGPDNLSNKGFVYTKIKKNDRFVHVIGTHLQAEDSMCGKTSPASVRTNQLKEIQDFIKNKNIPNDEYVLFGGDMNVNKINAENNSDSEYASMFKTLHASIPSYTGHTATWDATTNSIAKYNFPDSPAEYLDYIIASKDHANPSFIENKVLQPKSPQWTVTSWLKKYTYDDYSDHYPVAATISMK"}}, "key": {"ADX cells [1]": {"system": "ADX cells", "assay": "Daunorubicin trafficking into the nucleus of ADX cells (confocal microscopy)", "format": "cell-based, Chinese hamster", "conditions": "for percent of ADX cells displaying nuclear daunorubicin: Mean ± 95% CI", "description": "ADX cells were grown on 4-well slides, 20 uM daunorubicin was added for […], followed by various dose of liposomes containing C16:0 ceramide, sphingomyelin, C16:0 dihydroceramide or phosphatidylcholine for 1 h. Cells were examined under Leica SP-5 inverted confocal microscope. Y axis represents percent of cells with nuclear drug.\nADX cells were grown on 4-well slides. 3.5×10^4 ADX cells were incubated with 20 μM daunorubicin in DMEM HG:F-12 medium without serum. After 2 hours, at which time daunorubicin had reached steady state accumulation in cytoplasmic vesicles, liposomes containing long and very long chain ceramides were added to cells at 0, 1, 2, and 5 μM. After a 1 hour-incubation at 37° C., nuclear localization of daunorubicin was determined by confocal microscopy. Cells were examined under Leica SP-5 inverted confocal microscope. Y axis represents percent of cells with nuclear drug."}, "ADX cells [2]": {"system": "ADX cells", "assay": "MTT cell survival assay in MDR ADX cells", "format": "cell-based, Chinese hamster", "conditions": "for chemosensitization of ADX cells by sphingomyelinase: exogenous sphingomyelinase, data not shown; for EC50: Cricetulus griseus; for enhanced cell kill: ADX MDR cells with daunorubicin", "description": "(§1) A, time course of sphingomyelin changes in DC-3F and ADX cells after B. cereus SMase (0.05 U/mL) treatment. B, time course of ceramide generation. C, DC-3F and ADX cells were treated with increasing doses of B. cereus SMase (0-2 U/mL) and cell survival was measured by MTT (3-(4,5-dimethylthiazol-2-yl)-2,5-diphenyltetrazolium bromide) tetrazolium reduction (MTT) assay. D, Cells were seeded in 96-well plates (2×10^3 cells/well) in a 0.1 ml DME:F12 medium containing 5% FBS and cultured at 37° C. for 24 hours before addition of daunorubicin.\n(§2) A, DC-3F and ADX cells were treated with increasing doses of daunorubicin. B, DC-3F and ADX cells were incubated with B. cereus SMase (0.0-0.05 U/ml) and treated with daunorubicin for 1 day. Cell survival was measured by MTT assay. Data are from one representative of three independent studies."}, "DC-3F cells": {"system": "DC-3F cells", "assay": "MTT cell survival assay in parental DC-3F cells", "format": "cell-based, Chinese hamster", "description": "as §1, §2"}, "DC-3F tumor": {"system": "DC-3F tumor", "assay": "DC-3F flank tumor response to doxorubicin", "format": "in vivo, athymic nude mice", "conditions": "8 mg/kg×3", "method": "(§3) Tumors were created in the right flanks of athymic nude mice using 5×10^6 DC-3F cells or ADX cells and at tumor volumes of 100-150 mm^3 were treated with Doxorubicin 8 mg/kg i.v. weekly (arrows) for 3 weeks. Tumor volumes were measured daily according to the formula of Kim et al. (Cancer Res 1986: 46, 1120) for 3 months. Collated data in upper panels represent mean±SEM. Data in lower panels represent individual tumor patterns."}, "[3]": {"assay": "Doxorubicin MTD studies in mice", "conditions": "mouse, in vivo, intravenous, 8 mg/kg", "from_the_text": "Methods: Liposome Delivery, MTD, PK: Liposomes and free doxorubicin are delivered intravenously and MTD and PK determined in accordance with known protocols."}, "ADX tumor": {"system": "ADX tumor", "assay": "ADX MDR flank tumor response", "conditions": "8 mg/kg×3", "method": "as §3\n5×10^6 ADX cells were implanted into athymic nude mice by s.c. injection. Treatment was started on day 21 when tumor was 100 mm^3. 8 mg/kg Dox (arrows) was injected i.v. every 7 days followed by 1 μmol/mouse liposomal C16:0 ceramide for a total of 3 treatments (total Dox=24 mg/kg, the MTD in mice). Left panel of A) represents individual tumor growth with Dox alone. Right panel of A) represents tumor response when treated with Dox+1 μmol/mouse liposomal ceramide. Panel B is mean tumor growth response of Dox alone and combined treatment.\nADX flank tumors (in athymic Nude-FoxN1 nu mice) were loaded to isotopic steady state for 1 h by systemic administration of Dox (20 mg/kg), and 1 μmol of C16:0 ceramide containing liposomes/mouse was injected i.v. Mice were sacrificed 1 h thereafter, and tumors snap frozen in OCT at −80° C."}, "[4]": {"conditions": "×4 doses/25 g mouse; cited from earlier work"}}, "data": [{"molecule": "CCCCCCCCCCCCC/C=C/[C@@H](O)[C@H](CO)NC(=O)CCCCCCCCC", "note": "[C10:0]", "values": [{"measurement": "percent of ADX cells displaying nuclear daunorubicin", "setting": "ADX cells [1]; ceramide 1 μM", "result": "6.8 ± 2.2", "unit": "%"}, {"measurement": "percent of ADX cells displaying nuclear daunorubicin", "setting": "ADX cells [1]; ceramide 2 μM", "result": "13.1 ± 2.8", "unit": "%"}, {"measurement": "percent of ADX cells displaying nuclear daunorubicin", "setting": "ADX cells [1]; ceramide 5 μM", "result": "20.0 ± 2.4", "unit": "%"}]}, {"molecule": "CCCCCCCCCCCCC/C=C/[C@@H](O)[C@H](CO)NC(=O)CCCCCCCCCCCCC", "note": "[C14:0]", "values": [{"measurement": "percent of ADX cells displaying nuclear daunorubicin", "setting": "ADX cells [1]; ceramide 1 μM", "result": "7.4 ± 2.4", "unit": "%"}, {"measurement": "percent of ADX cells displaying nuclear daunorubicin", "setting": "ADX cells [1]; ceramide 2 μM", "result": "17.6 ± 3.4", "unit": "%"}, {"measurement": "percent of ADX cells displaying nuclear daunorubicin", "setting": "ADX cells [1]; ceramide 5 μM", "result": "23.4 ± 3.2", "unit": "%"}]}, {"molecule": "CCCCCCCCCCCCC/C=C/[C@@H](O)[C@H](CO)NC(=O)CCCCC", "note": "[C6:0]", "values": [{"measurement": "percent of ADX cells displaying nuclear daunorubicin", "setting": "ADX cells [1]; ceramide 1 μM", "result": "8.8 ± 2.4", "unit": "%"}, {"measurement": "percent of ADX cells displaying nuclear daunorubicin", "setting": "ADX cells [1]; ceramide 2 μM", "result": "12.2 ± 2.0", "unit": "%"}, {"measurement": "percent of ADX cells displaying nuclear daunorubicin", "setting": "ADX cells [1]; ceramide 5 μM", "result": "16.2 ± 2.3", "unit": "%"}]}, {"molecule": "N.N.[Cl][Pt][Cl]", "note": "[cis-platinum]", "values": [{"measurement": "chemosensitization of ADX cells by sphingomyelinase", "setting": "ADX cells [2]", "result": "chemosensitization of ADX cells was also achieved"}]}, {"molecule": "CC[C@]1(O)C[C@H]2CN(CCc3c([nH]c4ccccc34)[C@@](C(=O)OC)(c3cc4c(cc3OC)N(C=O)[C@H]3[C@@](O)(C(=O)OC)[C@H](OC(C)=O)[C@]5(CC)C=CCN6CC[C@]43[C@@H]65)C2)C1", "note": "[vincristine]", "values": [{"measurement": "chemosensitization of ADX cells by sphingomyelinase", "setting": "ADX cells [2]", "result": "chemosensitization of ADX cells was also achieved"}]}, {"molecule": "COc1cccc2c1C(=O)c1c(O)c3c(c(O)c1C2=O)C[C@@](O)(C(C)=O)C[C@@H]3O[C@H]1C[C@H](N)[C@H](O)[C@H](C)O1", "note": "[daunorubicin]", "values": [{"measurement": "EC50", "setting": "DC-3F cells; Cricetulus griseus, DC3F, parental DC-3F cells", "result": 0.8, "unit": "µM"}, {"measurement": "EC50", "setting": "ADX cells [2]; ADX cells treated with increasing doses of exogenous sphingomyelinase", "result": 4, "unit": "µM"}, {"measurement": "EC50", "setting": "ADX cells [2]; ADX cells, without sphingomyelinase", "result": 92, "unit": "µM"}]}, {"molecule": "COc1cccc2c1C(=O)c1c(O)c3c(c(O)c1C2=O)C[C@@](O)(C(=O)CO)C[C@@H]3O[C@H]1C[C@H](N)[C@H](O)[C@H](C)O1", "note": "[doxorubicin]", "values": [{"measurement": "tumor response to doxorubicin", "setting": "DC-3F tumor", "result": "sensitive"}, {"measurement": "MTD at 3 weeks", "setting": "[3]", "result": 24, "unit": "mg/kg"}, {"measurement": "tumor response to doxorubicin", "setting": "ADX tumor", "result": "totally resistant"}, {"measurement": "published MTD", "setting": "[4]", "result": "about 9 mg/kg"}]}, {"molecule": "CCCCCCCCCCCCC/C=C/[C@@H](O)[C@H](CO)NC(=O)CCCCCCC", "note": "[C8:0]", "values": [{"measurement": "percent of ADX cells displaying nuclear daunorubicin", "setting": "ADX cells [1]; ceramide 1 μM", "result": "11.4 ± 1.9", "unit": "%"}, {"measurement": "percent of ADX cells displaying nuclear daunorubicin", "setting": "ADX cells [1]; ceramide 2 μM", "result": "19.8 ± 2.1", "unit": "%"}, {"measurement": "percent of ADX cells displaying nuclear daunorubicin", "setting": "ADX cells [1]; ceramide 5 μM", "result": "35.5 ± 2.4", "unit": "%"}]}, {"molecule": "CN[C@@H]1C[C@H]2O[C@@](C)([C@@H]1OC)n1c3ccccc3c3c4c(c5c6ccccc6n2c5c31)C(=O)NC4", "note": "[staurosporine]", "values": [{"measurement": "chemosensitization of ADX cells by sphingomyelinase", "setting": "ADX cells [2]", "result": "no sensitization was achieved"}]}, {"molecule": "CCCCCCCCCCCCC/C=C/[C@@H](O)[C@H](CO)NC(=O)CCCCCCCCCCC", "note": "[C12:0]", "values": [{"measurement": "percent of ADX cells displaying nuclear daunorubicin", "setting": "ADX cells [1]; ceramide 1 μM", "result": "8.9 ± 3.0", "unit": "%"}, {"measurement": "percent of ADX cells displaying nuclear daunorubicin", "setting": "ADX cells [1]; ceramide 2 μM", "result": "18.8 ± 3.2", "unit": "%"}, {"measurement": "percent of ADX cells displaying nuclear daunorubicin", "setting": "ADX cells [1]; ceramide 5 μM", "result": "22.3 ± 3.1", "unit": "%"}]}, {"molecule": "CCCCCCCCCCCCC/C=C/[C@@H](O)[C@H](CO)NC(=O)CCCCCCCCCCCCCCC", "note": "[C16:0, N-palmitoyl (C16:0) ceramide]", "values": [{"measurement": "trafficking of daunorubicin into the nucleus", "setting": "ADX cells [1]; ADX cells pre-loaded with 20 μM daunorubicin", "result": "nuclear transfer occurred only with C16:0 ceramide treatment"}, {"measurement": "percent of ADX cells displaying nuclear daunorubicin", "setting": "ADX cells [1]; ceramide 1 μM", "result": "13.9 ± 1.7", "unit": "%"}, {"measurement": "percent of ADX cells displaying nuclear daunorubicin", "setting": "ADX cells [1]; ceramide 2 μM", "result": "24.3 ± 2.0", "unit": "%"}, {"measurement": "percent of ADX cells displaying nuclear daunorubicin", "setting": "ADX cells [1]; ceramide 5 μM", "result": "48.3 ± 2.7", "unit": "%"}, {"measurement": "enhanced cell kill", "setting": "ADX cells [2]", "result": 25, "unit": "fold"}]}, {"molecule": "CCCCCCCCCCCCC/C=C/[C@@H](O)[C@H](CO)NC(=O)CCC", "note": "[C4:0]", "values": [{"measurement": "percent of ADX cells displaying nuclear daunorubicin", "setting": "ADX cells [1]; ceramide 1 μM", "result": "8.0 ± 2.4", "unit": "%"}, {"measurement": "percent of ADX cells displaying nuclear daunorubicin", "setting": "ADX cells [1]; ceramide 2 μM", "result": "11.9 ± 2.7", "unit": "%"}, {"measurement": "percent of ADX cells displaying nuclear daunorubicin", "setting": "ADX cells [1]; ceramide 5 μM", "result": "13.0 ± 2.1", "unit": "%"}]}, {"molecule": "CCCCCCCCCCCCC/C=C/[C@@H](O)[C@H](CO)NC(C)=O", "note": "[C2:0]", "values": [{"measurement": "percent of ADX cells displaying nuclear daunorubicin", "setting": "ADX cells [1]; ceramide 1 μM", "result": "7.5 ± 2.5", "unit": "%"}, {"measurement": "percent of ADX cells displaying nuclear daunorubicin", "setting": "ADX cells [1]; ceramide 2 μM", "result": "12.5 ± 3.3", "unit": "%"}, {"measurement": "percent of ADX cells displaying nuclear daunorubicin", "setting": "ADX cells [1]; ceramide 5 μM", "result": "7.0 ± 1.6", "unit": "%"}]}, {"molecule": "B1", "values": [{"measurement": "effect of sphingomyelinase treatment on DC-3F cells", "setting": "DC-3F cells; daunorubicin sensitivity", "result": "unaffected"}, {"measurement": "enhanced cell kill", "setting": "ADX cells [2]", "result": 25, "unit": "fold"}]}]}
